Measured values published in patent US10716828B2, “Methods of modulating cellular homeostatic pathways and cellular survival” (Dana-Farber Cancer Institute, Inc., priority 2007, dated 2020).

Test system: islets
Assay: Toxicity to islets
Format: cell-based, mouse
Conditions: 3 μM

CSCC[C@@H]1NC(=O)[C@@](C)(NC(=O)[C@H](CCCNC(=N)N)NC(=O)[C@H](CC(C)C)NC(=O)[C@H](CCC(=O)O)NC(=O)[C@H](CCCNC(=N)N)NC(=O)CNC(=O)[C@H](Cc2ccc(O)cc2)NC(=O)[C@H](CCCNC(=N)N)NC(=O)[C@H](CCC(N)=O)NC(=O)[C@H](C)NC(=O)[C@H](C)NC(=O)[C@H](Cc2c[nH]c3ccccc23)NC(=O)[C@H](CC(C)C)NC(=O)[C@@H](N)CC(N)=O)CCCC=CCCC[C@@](C)(C(=O)N[C@@H](Cc2ccccc2)C(=O)N[C@H](C(=O)N[C@@H](CC(=O)O)C(=O)N[C@@H](CO)C(=O)N[C@@H](Cc2ccccc2)C(=O)N[C@@H](CCCCN)C(=O)N[C@@H](CCCCN)C(=O)O)C(C)C)NC(=O)[C@H](CC(=O)O)NC(=O)[C@H](CO)NC1=O [BAD SAHBA]
toxicity to islets: not toxic to islets
